Reference: EP4603105A1, “PHARMACEUTICAL COMPOSITION CONTAINING CYCLIC COMPOUND HAVING SELECTIVE KRAS INHIBITORY EFFECT AGAINST HRAS AND NRAS” (CHUGAI SEIYAKU KABUSHIKI KAISHA, priority 2022, dated 2024)
Read-outs that look alike come from different tables or passages of the source. Where a SMILES comes first, the peptide text is derived from it. Bridges are numbered along the chain shown (N, C = ends). [ ]: non-standard residue; d: D form. hPhe(3-Cl-4-CF3) = N[C@@H](CCc1ccc(C(F)(F)F)c(Cl)c1)C(=O)O; NPrPhe(4-CF3) = CCCN[C@@H](Cc1ccc(C(F)(F)F)cc1)C(=O)O; NMeGly(cPent) = CN[C@H](C(=O)O)C1CCCC1; Hyp = O=C(O)[C@@H]1C[C@@H](O)CN1; NMeD = CN[C@@H](CC(=O)O)C(=O)O; NMeL = CN[C@@H](CC(C)C)C(=O)O; Ac5c = NC1(C(=O)O)CCCC1; Aze = O=C(O)[C@@H]1CCN1; Ac4c = NC1(C(=O)O)CCC1; Sar = CNCC(=O)O

What was measured:
[1] = molecular target: GDP-bound NRAS wild-type protein (Homo sapiens, UniProt P01111); test: Binding to NRAS by surface plasmon resonance (SPR), KD and KD ratio to KRAS
Summary of the method: (§1)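 Measured at 30°C: SPR with GDP-loaded, E. coli-expressed biotin-Avi RAS captured (~100–300 RU), ascending 75 s compound injections, HBS pH 7.4 with GDP, MgCl2, 4% DMSO. KD from 1:1 fit.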

HRAS wild-type protein = HRAS wild-type protein (Homo sapiens, UniProt P01112); test: Binding to HRAS by surface plasmon resonance (SPR), KD and KD ratio to KRAS
Summary of the method: as §1

[2] = system: human lung cancer strain NCI-H441; type: cell-based
Summary of the method: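 Signal came from […] measured per well once the reagent was added. Beforehand, cells were cultured at 37°C and 5% carbon dioxide on a compound series serially diluted in dimethyl sulfoxide.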

[3] = ratio of KD for GDP-bound NRAS wild-type protein to KD for KRAS
[4] = ratio of KD for HRAS wild-type protein to KD for KRAS
[5] = ratio of KD value for GDP-bound NRAS wild-type protein to KD value for KRAS (SPR)
[6] = ratio of KD value for HRAS wild-type protein to KD value for KRAS (SPR)
[7] = ratio of the KD value with respect to GDP-bound NRAS wild-type protein to the KD value with respect to KRAS
[8] = ratio of the KD value with respect to HRAS wild-type protein to the KD value with respect to KRAS

Sequence of GDP-bound NRAS wild-type protein (P01111 whole entry): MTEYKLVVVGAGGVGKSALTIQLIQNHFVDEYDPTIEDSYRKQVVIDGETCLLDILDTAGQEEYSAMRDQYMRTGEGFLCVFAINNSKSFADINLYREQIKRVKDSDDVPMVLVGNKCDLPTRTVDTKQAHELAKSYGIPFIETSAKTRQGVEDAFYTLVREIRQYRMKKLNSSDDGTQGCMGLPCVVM
Sequence of HRAS wild-type protein (P01112 whole entry): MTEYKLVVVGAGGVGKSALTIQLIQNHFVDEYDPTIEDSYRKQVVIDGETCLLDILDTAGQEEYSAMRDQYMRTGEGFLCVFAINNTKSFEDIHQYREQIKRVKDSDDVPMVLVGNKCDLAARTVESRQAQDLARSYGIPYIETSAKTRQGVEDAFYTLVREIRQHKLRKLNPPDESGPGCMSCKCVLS

SMILES	NRAS /KRAS [1, 3]	HRAS /KRAS (HRAS wild-type protein; [4])	IC50 [2] [nM]	NRAS /KRAS [1, 5]	HRAS /KRAS (HRAS wild-type protein; [6])	NRAS /KRAS [1, 7]	HRAS /KRAS (HRAS wild-type protein; [8])	IC50 ([2]; NCI-H441 cells, 4 days, CellTiter-Glo, read-out: NCl-H441 IC50) [nM]
CCO[C@@H]1C[C@H]2C(=O)NC3(CCC3)C(=O)N(C)[C@@H](C3CCCC3)C(=O)N(C)[C@H](C(=O)N3CCCCC3)CC(=O)N(C)[C@H]3CCCCCCc4ccc(cc4)C[C@@H](C(=O)N(C)CC(=O)N[C@@H](CCc4ccc(C(F)(F)F)c(OC)c4)C(=O)N2C1)N1CC/C=C\C[C@@H](C1=O)N(C)C(=O)CN(C)C(=O)[C@H]([C@@H](C)CC)NC3=O [PP3033]	A (a compound having 10 or more and less than 20 is denoted as A)	B (a compound having 3 or more and less than 10 is denoted as B)	4.7	–	–	–	–	–
CCO[C@@H]1C[C@H]2C(=O)NC3(CCC3)C(=O)N(C)[C@@H](C3CCCC3)C(=O)N(C)[C@H](CC)CC(=O)N(C)[C@@H](CC3CC3)C(=O)N[C@@H]([C@@H](C)CC)C(=O)N(C)CC(=O)N(C)[C@H]3C/C=C\CCN(C3=O)C(Cc3ccc(C(F)(F)F)cc3)C(=O)N(C)CC(=O)N[C@@H](CCc3cc(F)c(C(F)(F)F)c(F)c3)C(=O)N2C1 (stereo partly drawn) [PP1631]	–	–	17.6	A (a compound having 10 or more and less than 20 is denoted as A)	B (a compound having 3 or more and less than 10 is denoted as B)	–	–	–
CCO[C@@H]1C[C@H]2C(=O)NC3(CCCC3)C(=O)N(C)[C@@H](C3CCCC3)C(=O)N(C)[C@H](C(=O)N3CCOCC3)CC(=O)N(C)[C@@H](CC(C)C)C(=O)N[C@@H]([C@@H](C)CC)C(=O)N(C)CC(=O)N(C)[C@H]3C[C@@H](C)CCN(C3=O)[C@@H](Cc3ccc(C(F)(F)F)cc3)C(=O)N(C)CC(=O)N[C@@H](CCc3cc(F)c(C(F)(F)F)c(F)c3)C(=O)N2C1 [PP1024]	B (a compound having 3 or more and less than 10 is denoted as B)	B (a compound having 3 or more and less than 10 is denoted as B)	12.7	–	–	–	–	–
CCO[C@@H]1C[C@H]2C(=O)NC3(CC(F)(F)C3)C(=O)N(C)[C@@H](C3CCCC3)C(=O)N(C)[C@H](C3CCC3)CC(=O)N(C)[C@@H](CC3CC3)C(=O)N[C@@H]([C@@H](C)CC)C(=O)N(C)CC(=O)N(C)[C@H]3C/C=C\CCN(C3=O)[C@@H](Cc3ccc(C(F)(F)F)cc3)C(=O)N(C)CC(=O)N[C@@H](CCc3cc(F)c(C(F)(F)F)c(F)c3)C(=O)N2C1 [PP1639]	–	–	44.8	A (a compound having 10 or more and less than 20 is denoted as A)	A (a compound having 10 or more and less than 20 is denoted as A)	–	–	–
CC[C@H](C)[C@@H]1NC(=O)[C@H](CC)N(C)C(=O)C[C@@H](C(=O)N(C)C)N(C)C(=O)[C@H](C2CCCC2)N(C)C(=O)C2(CCC2)NC(=O)[C@@H]2CCN2C(=O)[C@H](CCc2cc(F)c(C(F)(F)F)c(F)c2)NC(=O)CN(C)C(=O)[C@H](Cc2ccc(C(F)(F)F)cc2)N2CCCC[C@@H](C2=O)N(C)C(=O)CN(C)C1=O [PP0657]	–	–	32.9	–	–	B (a compound having 3 or more and less than 10 is denoted as B)	B (a compound having 3 or more and less than 10 is denoted as B)	–
CCO[C@@H]1C[C@H]2C(=O)NC3(CCC3)C(=O)N(C)[C@@H](C(CC)CC)C(=O)N3CCC[C@@H]3CC(=O)N(C)[C@@H](CC3CC3)C(=O)N[C@@H]([C@@H](C)CC)C(=O)N(C)CC(=O)N(C)[C@H]3C/C=C\CCN(C3=O)[C@@H](Cc3ccc(C(F)(F)F)cc3)C(=O)N(C)CC(=O)N[C@@H](CCc3cc(F)c(C(F)(F)F)c(F)c3)C(=O)N2C1 [PP1612]	–	–	61.9	B (a compound having 3 or more and less than 10 is denoted as B)	B (a compound having 3 or more and less than 10 is denoted as B)	–	–	–
CCCN1C(=O)[C@@H]2CCN2C(=O)CN(C)C(=O)[C@H]([C@@H](C)CC)NC(=O)[C@H](CC(C)C)N(C)C(=O)C[C@@H](C(=O)N(C)C)N(C)C(=O)[C@H](C2CCCC2)N(C)C(=O)C2(CCCC2)NC(=O)[C@@H]2C[C@@H](OCC)CN2C(=O)[C@H](CCc2ccc(C(F)(F)F)c(Cl)c2)NC(=O)CN(C)C(=O)[C@@H]1Cc1ccc(C(F)(F)F)cc1 [PP0444] ([NMeL]I[Sar][Aze][NPrPhe(4-CF3)][Sar][hPhe(3-Cl-4-CF3)][Hyp](Et)[Ac5c][NMeGly(cPent)][NMeD]-NMe2; lactam N-11)	–	–	1.4	–	–	C (A compound having a KD ratio of 0.1 or more and less than 3 is denoted as C)	C (A compound having a KD ratio of 0.1 or more and less than 3 is denoted as C)	–
CCO[C@@H]1C[C@H]2C(=O)NC3(CCC3)C(=O)N(C)[C@@H](C(CC)CC)C(=O)N(C)C(C(C)C)CC(=O)N(C)[C@@H](CC3CC3)C(=O)N[C@@H]([C@@H](C)CC)C(=O)N(C)CC(=O)N(C)[C@H]3C/C=C\CCN(C3=O)[C@@H](Cc3ccc(C(F)(F)F)cc3)C(=O)N(C)CC(=O)N[C@@H](CCc3cc(F)c(C(F)(F)F)c(F)c3)C(=O)N2C1 (stereo partly drawn) [PP1595]	–	–	64.6	A (a compound having 10 or more and less than 20 is denoted as A)	A (a compound having 10 or more and less than 20 is denoted as A)	–	–	–
CCO[C@@H]1C[C@H]2C(=O)NC3(CCC3)C(=O)N(C)[C@@H](C3CCCC3)C(=O)N(C)[C@H](C)CC(=O)N(C)[C@@H](CC)C(=O)N[C@@H]([C@@H](C)CC)C(=O)N(C)CC(=O)N(C)[C@H]3C/C=C\CCN(C3=O)[C@@H](Cc3ccc(C(F)(F)F)cc3)C(=O)N(C)CC(=O)N[C@@H](CCc3cc(F)c(C(F)(F)F)c(F)c3)C(=O)N2C1 [PP1095]	B (a compound having 3 or more and less than 10 is denoted as B)	B (a compound having 3 or more and less than 10 is denoted as B)	14.9	–	–	–	–	–
CCO[C@@H]1C[C@H]2C(=O)NC3(CC(C)(C)C3)C(=O)N(C)[C@@H](C3CCCC3)C(=O)N(C)[C@H](C(=O)N3CCCC3)CC(=O)N(C)[C@H]3CCCCCc4ccc(cc4)C[C@@H](C(=O)N(C)CC(=O)N[C@@H](CCc4ccc(C(F)(F)F)c(OC)c4)C(=O)N2C1)N1CC/C=C\C[C@@H](C1=O)N(C)C(=O)CN(C)C(=O)[C@H]([C@@H](C)CC)NC3=O [PP3037]	A (a compound having 10 or more and less than 20 is denoted as A)	B (a compound having 3 or more and less than 10 is denoted as B)	3.4	–	–	–	–	–
CCCN1C(=O)CN(C)C(=O)CN(C)C(=O)[C@H]([C@@H](C)CC)NC(=O)[C@H](CC(C)C)N(C)C(=O)C[C@@H](C(=O)N(C)C)NC(=O)[C@H](C2CCCC2)N(C)C(=O)C2(CCC2)NC(=O)[C@@H]2CCCN2C(=O)[C@H](CCc2ccc(C(F)(F)F)c(Cl)c2)NC(=O)CN(C)C(=O)[C@@H]1Cc1ccc(C(F)(F)F)cc1 [PP0356] ([NMeL]I[Sar][Sar][NPrPhe(4-CF3)][Sar][hPhe(3-Cl-4-CF3)]P[Ac4c][NMeGly(cPent)]D-NMe2; lactam N-11)	B (a compound having 3 or more and less than 10 is denoted as B)	B (a compound having 3 or more and less than 10 is denoted as B)	99.4	–	–	–	–	–
CCC[C@H]1C(=O)N[C@@H]([C@@H](C)CC)C(=O)N(C)CC(=O)N(C)[C@H]2C/C=C\CCN(C2=O)[C@@H](Cc2ccc(C)cc2)C(=O)N(C)CC(=O)N[C@@H](CCc2ccc3sc(F)c(C)c3c2)C(=O)N2C[C@H](OCC)C[C@H]2C(=O)NC2(CC(C)(C)C2)C(=O)N(C)[C@@H](C(CC)CC)C(=O)N(C)[C@H](C(=O)N(C)C)CC(=O)N1C [PP2894]	AA (a compound having 20 or more is denoted as AA)	A (a compound having 10 or more and less than 20 is denoted as A)	9.6	–	–	–	–	–
CCO[C@@H]1C[C@H]2C(=O)NC3(CC(C)(C)C3)C(=O)N(C)[C@@H](C3CCCC3)C(=O)N(C)[C@H](C(=O)N3CCCCC3)CC(=O)N(C)[C@H]3CCCCCc4ccc(cc4)C[C@@H](C(=O)N(C)CC(=O)N[C@@H](CCc4ccc(C(F)(F)F)c(OC)c4)C(=O)N2C1)N1CC/C=C\C[C@@H](C1=O)N(C)C(=O)CN(C)C(=O)[C@H]([C@@H](C)CC)NC3=O [PP3036]	A (a compound having 10 or more and less than 20 is denoted as A)	B (a compound having 3 or more and less than 10 is denoted as B)	8	–	–	–	–	–
CCC(CC)[C@H]1C(=O)N(C)[C@H](C(=O)N(C)C)CC(=O)N(C)[C@@H](COC)C(=O)N[C@@H]([C@@H](C)CC)C(=O)N(C)CC(=O)N(C)[C@H]2C/C=C\CCN(C2=O)[C@@H](Cc2ccc(C)cc2)C(=O)N(C)CC(=O)N[C@@H](CCc2cc(F)c(C(F)(F)F)c(F)c2)C(=O)N2CC3(CC3)C[C@H]2C(=O)NC2(CC(C)(C)C2)C(=O)N1C [PP2963]	AA (a compound having 20 or more is denoted as AA)	A (a compound having 10 or more and less than 20 is denoted as A)	13.4	–	–	–	–	–
CCC[C@H]1C(=O)N[C@@H]([C@@H](C)CC)C(=O)N(C)CC(=O)N(C)[C@H]2C/C=C\CCN(C2=O)[C@@H](Cc2ccc(C(F)(F)F)cc2)C(=O)N(C)CC(=O)N[C@@H](CCc2cc(C)c(C3CC3)c(C)c2)C(=O)N2C[C@H](OCC)C[C@H]2C(=O)NC2(CC(C)(C)C2)C(=O)N(C)[C@@H](C2CCCC2)C(=O)N(C)[C@H](C(=O)N(C)C)CC(=O)N1C [PP2863]	A (a compound having 10 or more and less than 20 is denoted as A)	A (a compound having 10 or more and less than 20 is denoted as A)	–	–	–	–	–	128
